Results on one compound are retold here after US11572590B2, “Methods for evaluating tumor cell spheroids using 3D microfluidic cell culture device” (Dana-Farber Cancer Institute, Inc., priority 2017, dated 2023).

SMILES strings stand for the structures. Like-named read-outs stand apart in the source and are kept apart here.

Assay in all cases: SelectScreen Kinase Profiling, single point inhibition and IC50 for off-target kinases
What all share (type): biochemical

Assay [1] deals with off-target kinases (Homo sapiens, UniProt P00519, E255K). Particulars: ABL1 E255K, ATP Km app, ZLYTE.
Assay [2] deals with off-target kinases (Homo sapiens, UniProt P06493).
Assay [3] has as its target off-target kinases (Homo sapiens, UniProt P42345). As to conditions: FRAP1 (mTOR), ZLYTE, ATP Km app.
The target in assay [4] is T1, off-target kinases (Homo sapiens, UniProt Q9UL54).
T1 sequence (Q9UL54 1-1235): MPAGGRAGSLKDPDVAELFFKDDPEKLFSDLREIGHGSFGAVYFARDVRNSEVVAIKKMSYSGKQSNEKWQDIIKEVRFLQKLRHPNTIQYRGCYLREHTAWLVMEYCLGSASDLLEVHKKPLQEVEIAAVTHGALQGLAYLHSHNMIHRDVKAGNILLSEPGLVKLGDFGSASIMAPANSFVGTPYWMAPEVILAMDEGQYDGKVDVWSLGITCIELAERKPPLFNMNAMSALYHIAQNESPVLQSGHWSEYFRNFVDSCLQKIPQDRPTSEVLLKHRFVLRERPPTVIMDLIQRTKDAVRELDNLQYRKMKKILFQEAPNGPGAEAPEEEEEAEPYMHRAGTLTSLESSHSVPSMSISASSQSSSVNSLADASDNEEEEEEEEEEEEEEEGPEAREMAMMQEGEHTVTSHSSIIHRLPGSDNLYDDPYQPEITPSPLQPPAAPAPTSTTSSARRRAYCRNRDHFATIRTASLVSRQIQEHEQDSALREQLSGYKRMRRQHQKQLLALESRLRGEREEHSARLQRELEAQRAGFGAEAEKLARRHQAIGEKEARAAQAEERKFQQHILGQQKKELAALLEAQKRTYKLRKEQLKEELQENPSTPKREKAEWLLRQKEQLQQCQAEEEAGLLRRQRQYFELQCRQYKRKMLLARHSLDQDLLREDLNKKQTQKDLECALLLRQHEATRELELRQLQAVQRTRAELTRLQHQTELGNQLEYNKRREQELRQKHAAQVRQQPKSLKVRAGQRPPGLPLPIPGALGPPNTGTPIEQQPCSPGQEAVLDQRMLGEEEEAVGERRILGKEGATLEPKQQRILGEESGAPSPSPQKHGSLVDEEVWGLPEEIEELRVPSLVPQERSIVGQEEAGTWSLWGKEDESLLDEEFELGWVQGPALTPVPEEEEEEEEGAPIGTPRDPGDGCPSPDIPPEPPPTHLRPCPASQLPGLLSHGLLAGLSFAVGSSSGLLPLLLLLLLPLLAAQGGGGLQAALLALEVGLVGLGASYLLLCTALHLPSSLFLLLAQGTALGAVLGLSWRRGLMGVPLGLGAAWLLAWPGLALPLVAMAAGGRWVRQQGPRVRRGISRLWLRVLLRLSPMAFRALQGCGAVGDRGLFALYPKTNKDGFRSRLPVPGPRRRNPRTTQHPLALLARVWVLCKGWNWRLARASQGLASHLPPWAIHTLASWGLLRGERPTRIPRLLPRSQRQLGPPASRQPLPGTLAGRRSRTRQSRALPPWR
Particulars: TAOK2 (TAO1), ZLYTE, ATP Km app.

Sequence of off-target kinases (Homo sapiens, UniProt P00519, E255K) (P00519 whole entry E255K): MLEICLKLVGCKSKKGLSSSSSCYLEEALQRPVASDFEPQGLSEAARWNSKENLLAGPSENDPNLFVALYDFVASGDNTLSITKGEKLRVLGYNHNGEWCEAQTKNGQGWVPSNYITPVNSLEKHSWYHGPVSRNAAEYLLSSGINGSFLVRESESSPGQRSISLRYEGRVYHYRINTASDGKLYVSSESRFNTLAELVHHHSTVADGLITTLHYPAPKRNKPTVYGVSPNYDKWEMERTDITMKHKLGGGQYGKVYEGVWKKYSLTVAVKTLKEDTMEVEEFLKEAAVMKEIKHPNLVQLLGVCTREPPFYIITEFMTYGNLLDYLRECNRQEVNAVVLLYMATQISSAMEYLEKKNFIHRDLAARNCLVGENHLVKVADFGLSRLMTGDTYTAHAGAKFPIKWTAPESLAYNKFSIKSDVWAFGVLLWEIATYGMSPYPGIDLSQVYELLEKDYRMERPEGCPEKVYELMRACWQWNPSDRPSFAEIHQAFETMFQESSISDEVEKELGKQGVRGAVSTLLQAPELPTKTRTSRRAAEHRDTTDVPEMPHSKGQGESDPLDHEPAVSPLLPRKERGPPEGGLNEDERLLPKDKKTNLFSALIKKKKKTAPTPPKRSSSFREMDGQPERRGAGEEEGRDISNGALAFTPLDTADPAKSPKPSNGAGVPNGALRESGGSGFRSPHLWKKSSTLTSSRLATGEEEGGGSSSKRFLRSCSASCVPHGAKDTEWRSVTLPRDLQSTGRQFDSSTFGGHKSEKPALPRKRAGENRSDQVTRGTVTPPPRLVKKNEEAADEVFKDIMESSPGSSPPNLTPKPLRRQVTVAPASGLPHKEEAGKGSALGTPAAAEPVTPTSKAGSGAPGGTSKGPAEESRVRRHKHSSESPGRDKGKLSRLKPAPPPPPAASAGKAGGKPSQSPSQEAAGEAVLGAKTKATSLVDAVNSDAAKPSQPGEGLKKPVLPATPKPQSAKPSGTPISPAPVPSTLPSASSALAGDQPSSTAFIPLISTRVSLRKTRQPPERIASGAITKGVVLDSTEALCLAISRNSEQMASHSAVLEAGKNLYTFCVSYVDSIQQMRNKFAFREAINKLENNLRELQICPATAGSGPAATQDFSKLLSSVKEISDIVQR
Sequence of off-target kinases (Homo sapiens, UniProt P06493) (P06493 whole entry): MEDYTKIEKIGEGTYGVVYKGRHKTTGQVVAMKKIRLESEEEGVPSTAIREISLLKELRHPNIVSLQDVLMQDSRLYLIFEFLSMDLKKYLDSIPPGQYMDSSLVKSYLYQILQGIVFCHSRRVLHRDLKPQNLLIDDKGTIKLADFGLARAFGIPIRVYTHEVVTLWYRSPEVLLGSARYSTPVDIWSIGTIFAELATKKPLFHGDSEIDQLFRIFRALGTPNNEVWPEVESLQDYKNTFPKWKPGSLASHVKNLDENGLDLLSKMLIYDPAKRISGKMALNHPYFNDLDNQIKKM

By inhibition is commonly meant how much of the control response was suppressed. Turning to `N#Cc1cc(-c2ncnc(Nc3ccc(N4CCN(C5COC5)CC4)cc3)n2)ccc1OC1CCOCC1` [Compound 1, 5-(4-((4-(4-(oxetan-3-yl)piperazin-1-yl)phenyl)amino)-1,3,5-triazin-2-yl)-2-((tetrahydro-2H-pyran-4-yl)oxy)benzonitrile], the inhibition at off-target kinases [1] (read-out: % Inhibition 1) stood at 53%; at off-target kinases [1] (read-out: % Inhibition 2), 50%; on off-target kinases [1] (read-out: % Inhibition Avg), 51%; at off-target kinases [2] (CDK1/cyclin A2, LanthaScreen Binding, read-out: % Inhibition 1), 2%; at off-target kinases [2] (CDK1/cyclin A2, LanthaScreen Binding, read-out: % Inhibition 2), 12%; at off-target kinases [2] (CDK1/cyclin A2, LanthaScreen Binding, read-out: % Inhibition Avg), 7%. Also, the inhibition on off-target kinases [2] (CDK1/cyclin B, ZLYTE, ATP Km app, read-out: % Inhibition 1) was found to be 16%; at off-target kinases [2] (CDK1/cyclin B, ZLYTE, ATP Km app, read-out: % Inhibition 2) it was 15%; at off-target kinases [2] (CDK1/cyclin B, ZLYTE, ATP Km app, read-out: % Inhibition Avg), 16%; at off-target kinases [3] (read-out: % Inhibition 1), 2%; on off-target kinases [3] (read-out: % Inhibition 2), 12%; on off-target kinases [3] (read-out: % Inhibition Avg), 7%. Besides, the inhibition at off-target kinases [4] (read-out: % Inhibition 1) is 3%; on off-target kinases [4] (read-out: % Inhibition 2) it was 6%; at off-target kinases [4] (read-out: % Inhibition Avg) it was 5%.
